From PubChem BioAssay AID179 (DTP/NCI, 2004)
Active and inactive are the calls of the source.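 How the source made its calls: active means compounds giving half or more protection of infected cells from virus-caused growth loss, again on retest; inactive means the rest.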

Test system: CEM cells HIV-1 protection, formazan growth assay
Test: NCI AIDS Antiviral Assay
Conditions: for IC50: measured here: growth of uninfected CEM cells
In short: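 Steps: treat uninfected and HIV-1-infected human CEM cells at five drug levels; quantify growth by soluble formazan; retest any compound reaching 50% protection; classify actives from the retest.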

Row | Compound | EC50 | IC50 | outcome
1 | CN(Cc1c2ccccc2cc2ccccc12)S(=O)(=O)c1ccc(-c2c3nc(c(-c4ccc(S(=O)(=O)N(C)Cc5c6ccccc6cc6ccccc56)cc4)c4ccc([nH]4)c(-c4ccc(S(=O)(=O)N(C)Cc5c6ccccc6cc6ccccc56)cc4)c4nc(c(-c5ccc(S(=O)(=O)N(C)Cc6c7ccccc7cc7ccccc67)cc5)c5ccc2[nH]5)C=C4)C=C3)cc1 | > 100 µM | > 100 µM | –
2 | COc1ccc(N2C(=O)/C(=C\c3cccc(Oc4ccccc4)c3)S(=O)(=O)C2c2ccccc2)cc1 (stereo not given) | > 200 µM | 28.8 µM | –
3 | C=CCN=C1N=C(C)C(C(=O)OCC)S1 (stereo not given) | > 30.2 µM | 17.8 µM | –
4 | O=C(O)C1COCN1C(=O)c1cc2ccccc2cc1SSc1cc2ccccc2cc1C(=O)N1COCC1C(=O)O (stereo not given) | > 200 µM | 93.3 µM | –
5 | C=C(C)CN1CCCN(S(=O)(=O)c2ccc(C)cc2)CC(=C)CN(S(=O)(=O)c2ccc(C)cc2)CCC1 | > 200 µM | 5.25 µM | –
6 | Cc1cc(=O)c2cc3nc(-c4cccnc4)oc3c(Br)c2o1 | 182 µM | > 200 µM | –
7 | COc1ccc(C(=O)NNC(=O)c2nsc3ccccc23)cc1 | > 41.7 µM | > 41.7 µM | –
8 | CCOC(=O)[C@@]12C(=O)[C@@H](C)CC[C@@H]1[C@@H](C)C[C@H]2C=C(C)C | > 200 µM | 110 µM | –
9 | COC(=O)C(=O)C1CCCCC(C2=NC3NN=C(N)N3C2=O)C1=O (stereo not given) | > 21.4 µM | > 21.4 µM | –
10 | O=C1NCCCCCCCCNC(=O)c2cccc1c2 | > 13.8 µM | > 13.8 µM | –
11 | CC1(C)OC2C(=O)O[C@H](CO)C2O1 (stereo not given in full) | > 200 µM | > 200 µM | –
12 | O=[N+]([O-])c1ccc(/C=C/c2ccc([N+](=O)[O-])cc2S(=O)(=O)O)c(S(=O)(=O)O)c1 | – | – | inactive
13 | CC1=C(C(=O)Nc2ccccc2C)C(c2ccc(C3C(C(=O)Nc4ccccc4C)=CNC=C3C(=O)Nc3ccccc3C)cc2)C(C(=O)Nc2ccccc2C)=C(C)N1 | – | – | inactive
14 | Cc1c(-c2cc3n(n2)C(c2cccs2)C(C#N)=C(c2ccccc2)N3)c(=O)n(-c2ccccc2)n1C (stereo not given) | – | – | inactive
15 | O=C1CCSc2c(cnc3ccccc23)N1 | > 200 µM | > 200 µM | –
16 | O=[N+]([O-])c1cc(C=NC23CC4CC(CC(C4)C2)C3)ccc1Cl | > 200 µM | 3.72 µM | –
17 | CCCc1c(C(=O)OCC)[nH]c(-c2ccc(-c3[nH]c(C(=O)OCC)c(CCC)c3C(=O)OCC)s2)c1C(=O)OCC | > 4.68 µM | > 4.68 µM | –
18 | C=C1CN(C(=O)c2cc3cc(OC)c(OC)c(OC)c3[nH]2)c2cc([N+](=O)[O-])ccc21 | 26.9 µM | > 200 µM | –
19 | FC(F)(F)c1ccc(N=NN2CCCC2)cc1 | > 200 µM | 22.9 µM | –
20 | O=C1NN=C2CCCCCCC12 (stereo not given) | > 302 µM | > 302 µM | –
21 | N#Cc1c(=O)c2ccccc2n2c1[nH]c1ccccc12 | > 200 µM | 77.6 µM | –
22 | COC(=O)c1cc(C(=CCN[C@H]2CC[C@@]3(C)[C@@H](CC[C@@H]4[C@@H]3CC[C@]3(C)[C@@H]([C@H](C)CCCC(C)C)CC[C@@H]43)C2)c2cc(Cl)c(OC)c(C(=O)OC)c2)cc(Cl)c1OC | > 100 µM | > 100 µM | –

Row | Compound | EC50 | IC50 | outcome
23 | CC(C)c1cccc(C(C)C)c1NC(=O)C(=O)Cc1nc2ccc([N+](=O)[O-])cc2[nH]c1=O | > 490 µM | 89.1 µM | –
24 | C[C@@H](NS(=O)(=O)c1ccc(NC(=O)c2ccccc2)cc1)C(=O)O | – | – | inactive
25 | CCOC1(OCC)CS(=O)(=O)C1c1ccccc1 (stereo not given) | > 661 µM | > 661 µM | –
26 | COC(=O)[C@H](Cc1ccccc1)NC(=O)OCC1OC(n2cc(C)c(=O)[nH]c2=O)CC1N=[N+]=[N-] (stereo not given in full) | > 200 µM | > 200 µM | –
27 | O=S(=O)(c1ccc(Cl)cc1)c1ccccc1C1=NCCN1 | > 200 µM | > 200 µM | –
28 | CC(=O)OCc1cc(OC(C)=O)cnc1COC(C)=O | > 468 µM | > 468 µM | –
29 | Cc1ccc2ccccc2c1CSc1ncnc2c1ncn2C1OC(CO)C(O)C1O (stereo not given) | > 200 µM | 24.5 µM | –
30 | O=C1/C(=C\c2cccc(Oc3ccccc3)c2)SC(c2ccccc2)N1c1ccccc1 (stereo not given) | > 20 µM | 0.0933 µM | –
31 | FC(F)(Sc1ccccc1)c1nc2ccccc2o1 | > 77.6 µM | 66.1 µM | –
32 | O=C(Nc1c(C(=O)NC2CCCCC2)[nH]c(=O)[nH]c1=O)c1ccc(Cl)cc1 | – | – | inactive
33 | CC/C(=N/O)c1ccc(Br)s1 | – | – | inactive
34 | CNC(=O)N1CN(c2ccccc2)C2(CCN(Cc3ccccc3)CC2)C1=O | 195 µM | > 200 µM | –
35 | CN1C(=O)[C@@H]2[C@@H]3c4ccccc4N(S(=O)(=O)C(F)(F)F)[C@@H]3c3[nH]c4ccccc4c3[C@@H]2C1=O | > 200 µM | 9.33 µM | –
36 | COc1cccc(OC)c1C1ON=C(c2ccccc2)N1C12CC3CC(CC(C3)C1)C2 (stereo not given) | > 200 µM | 141 µM | –
37 | O=[N+]([O-])c1cccc(C2=NN(c3ccccc3)C3c4ccccc4OCC23)c1 (stereo not given) | > 7.41 µM | > 7.41 µM | –
38 | O=[As](O)(O)c1ccccc1F | > 200 µM | 141 µM | –
39 | Cc1ccc(-c2c(N)nc(NC#N)nc2CCC(=O)Nc2ccccc2[N+](=O)[O-])cc1 | – | – | inactive
40 | CC(=O)Nc1c(C#N)c2n(c1C(=O)Nc1ccc(S(N)(=O)=O)cc1)CCC2 | > 200 µM | > 200 µM | –
41 | O=S(C/C=C/CS(=O)c1ccccc1)c1ccccc1 (stereo not given) | > 813 µM | 70.8 µM | –
42 | O=c1oc(=O)c2cc3c(=O)oc(=O)c3cc12 | > 200 µM | > 200 µM | –
43 | O=C(NCCCCl)c1c(O)c2ccccc2[nH]c1=O | > 200 µM | 81.3 µM | –
44 | NC(=O)c1nnsc1NN=O | > 200 µM | > 200 µM | –

Row | Compound | EC50 | IC50 | outcome
45 | COC(=O)c1ccc(C(=O)OC)c2nc3cc(Cl)ccc3nc12 | > 30.2 µM | > 30.2 µM | –
46 | O=C1OCC(O)=C1C(c1ccc(Cl)cc1)c1cc2c(cc1O)OCO2 (stereo not given) | > 200 µM | > 200 µM | –
47 | OCC1CC(F)C(n2cnc3c(I)ncnc32)O1 (stereo not given) | > 138 µM | 63.1 µM | –
48 | CC1=C(C)CC2(CC1)C(=O)NC(=O)NC2=O | > 832 µM | > 832 µM | –
49 | OC1C2C3CCC(C3)C2C(O)C2C3CCC(C3)C12 (stereo not given) | > 200 µM | > 200 µM | –
50 | C#CCOCC12C=CC(O1)C1C(=O)OCC12 (stereo not given) | > 200 µM | > 200 µM | –
51 | O=C1N(c2ccccc2)N=C(c2ccccc2)C12CC2 | > 200 µM | 107 µM | –
52 | CC1C2CC(C(C3C(=O)C4CC3C(C)(C)C4C)C2=O)C1(C)C (stereo not given) | > 437 µM | > 437 µM | –
53 | N#Cc1ccc(Nc2cnc3cc(N)ccc3n2)cc1 | > 20 µM | > 20 µM | –
54 | Nc1ncnc2c1ncn2C1OC(CSC(F)F)C(O)C1O (stereo not given) | > 759 µM | 219 µM | –
55 | CC1=CO[C@@H]2O[C@@]3(C)CC[C@H]4[C@H](C)CC[C@@H]1[C@@]24OO3 | > 200 µM | 178 µM | –
56 | O=Nc1c2n[nH]c1CCCCCCCCC2 | > 309 µM | 44.7 µM | –
57 | CN(NC(=O)c1cccs1)C1=NCCN1 | > 200 µM | > 200 µM | –
58 | CCCCOC(=O)/C(O)=C(\C=NC(=S)c1cccnc1)C(=O)C=C(C)C | > 200 µM | 41.7 µM | –
59 | COc1cc2oc(-c3ccc4c(c3)OCO4)c(OC)c(=O)c2c(O)c1OC | > 100 µM | > 100 µM | –
60 | Cc1cc(O)c2c(=O)c(=O)c2c1 | > 1550 µM | 275 µM | –
61 | O=C(SC1=NCCS1)SC1=NCCS1 | – | – | inactive
62 | COC(=O)C(C)(C)C(OP(=O)(OC)OC)=C(C)C | > 891 µM | > 891 µM | –
63 | CCOC(=O)CCC(=O)C1c2cccc(O)c2C(=O)c2c(O)cccc21 | > 28.2 µM | 4.9 µM | –
64 | O=C(NCCN(CCNC(=O)c1cccc(O)c1O)CCNC(=O)c1cccc(O)c1O)c1cccc(O)c1O | > 200 µM | 3.39 µM | –
65 | COc1ccc(O[C@H](COCc2ccccc2)C[C@@H]2COC(C)(C)O2)cc1 | – | – | inactive
66 | N#CC1(C#N)C(C#N)(C#N)C1(C#N)C(N)=O | > 200 µM | > 200 µM | –

Row | Compound | EC50 | IC50 | outcome
67 | N#CC(C#N)=Cc1ccccc1[N+](=O)[O-] | > 302 µM | 15.1 µM | –
68 | O=[N+]([O-])c1cccc(C=NC23CC4CC(CC(C4)C2)C3)c1 | > 66.1 µM | > 66.1 µM | –
69 | O=C(O)c1c(Cl)c(Cl)c(Cl)c(Cl)c1-c1c2ccc(=O)c(O)c-2oc2c(O)c(O)ccc12 | > 83.2 µM | 51.3 µM | –
70 | O=C1C=C(c2ccccc2)Sc2ccccc2N1 | > 89.1 µM | 47.9 µM | –
71 | Brc1ccc(N2N=NC3CNCC32)cc1 (stereo not given) | > 26.9 µM | > 26.9 µM | –
72 | CCC(CC)(C(=O)O)C(=O)O | > 200 µM | > 200 µM | –
73 | O=C(Nc1nc(C23CC4CC(CC(C4)C2)C3)cs1)c1cc2cc(Br)cc(Br)c2oc1=O | > 200 µM | 135 µM | –
74 | c1ccc2c(c1)SCCC2NC1=NCCO1 (stereo not given) | > 200 µM | 162 µM | –
75 | Cc1ccc(S(=O)(=O)c2ccsc2NC(=O)c2ccccc2)cc1 | > 100 µM | > 100 µM | –
76 | O=c1c2ccccc2oc2c1ccc1ncccc12 | > 200 µM | 6.61 µM | –
77 | Cc1cc[n+]2cc(-c3ccc(/C=N/N=C(N)N)cc3)n(C)c2c1 | 52.5 µM | 55 µM | –
78 | C=C(C)C12CC3CC(/C(=N/O)C(C1)/C3=N\O)[C@@]2(C)O (stereo not given in full) | > 355 µM | > 355 µM | –
79 | CN1CCCC1CCNc1nc(Nc2ccc(Cl)c(Cl)c2)nc2ccc(Cl)cc12 (stereo not given) | > 19.1 µM | 3.24 µM | –
80 | COC(=O)c1ccccc1CC1Cc2c(C)ccc(C)c2C1=O (stereo not given) | > 200 µM | 34.7 µM | –
81 | N#CCc1ccc(C(C#N)/C(CCCC(=O)Nc2cccc([N+](=O)[O-])c2)=N\NC(=O)NN)cc1 (stereo not given) | > 389 µM | > 389 µM | –
82 | CC1(C)CNCC(C)(OCc2ccccc2)C(=O)NC(C)(C)CNCC(C)(OCc2ccccc2)C(=O)N1 (stereo not given) | 3.8 µM | 24.5 µM | –
83 | Cc1nn(-c2ccccc2)c2nc(N3CCOCC3)nnc12 | – | – | inactive
84 | N#CCCN(CCC#N)C(=O)Nc1cccc2ccccc12 | – | – | inactive
85 | COc1ccc(-c2c(C)c(C)[nH]c(=O)c2C(=O)O)c(OCc2ccccc2)c1OC | – | – | inactive
86 | CCN1CN(c2ccccc2)C2(CCN(CC3COc4ccccc4O3)CC2)C1=O (stereo not given) | > 200 µM | 115 µM | –
